Reference: US12447156B2, “Treating progressive familial intrahepatic cholestasis (PFIC) with IBAT inhibitors” (ALBIREO AB, priority 2020, dated 2025)
Marks after values point to notes of the source that are not given here.

Test system: patients with PFIC3 or PFIC6
Test: PEDFIC 2: efficacy and safety in patients with PFIC3 or PFIC6
Assay type: in vivo, human
Conditions: for Common TEAEs by preferred term: ALT increased / Common TEAEs by preferred term: INR increased / Common TEAEs by preferred term: Total bilirubin increased / Common TEAEs by preferred term: Vitamin D deficiency / Mild TEAEs / Moderate TEAEs / Serious TEAEs / Severe TEAEs / TEAEs / TEAEs leading to discontinuation: 120 μg/kg once daily
From the text: In PEDFIC 2, eligible patients are enrolled into one of 2 cohorts, based on the following criteria: Cohort 1 includes pediatric patients with PFIC1 or PFIC2 from PEDFIC 1 and cohort 2 includes patients of any age with any PFIC type; these are newly enrolled patients. In both cohorts, eligible patients are those with genetically confirmed PFIC, elevated serum bile acids (≥100 μmol/L), and significant pruritus (i.e., itching or scratching score of ≥2 per patient/caregiver report using the PRUCISION instrument). PEDFIC 2 includes a 72-week treatment period in which all patients receive oral, once-daily odevixibat 120 μg/kg.
Change from baseline in serum bile acids, pruritus, hepatic biochemical parameters, growth, and sleep; serum bile acid response (i.e., serum bile acids reduced ≥70% or levels ≤70 μmol/L); proportion of positive pruritus assessments (PPAs) at the patient level (i.e., pruritus score ≤1 or a ≥1-point drop from baseline); and treatment-emergent adverse events (TEAEs). Patient pruritus and sleep were evaluated twice daily by caregivers using the validated PRUCISION scale; pruritus responses range from 0 to 4, with higher scores indicating worse symptom.

[1] = 6 patients with PFIC3 or PFIC6, 120 μg/kg
[2] = patient with PFIC6, N=1, oral once-daily 120 μg/kg
[3] = patients with PFIC3, N=4, oral once-daily 120 μg/kg

For CCCCC1(CCCC)CN(c2ccccc2)c2cc(SC)c(OCC(=O)N[C@@H](C(=O)N[C@@H](CC)C(=O)O)c3ccc(O)cc3)cc2S(=O)(=O)N1 [Odevixibat, 1,1-dioxo-3,3-dibutyl-5-phenyl-7-methylthio-8-(N-{(R)-α-[N-((S)-1-carboxypropyl)carbamoyl]-4-hydroxybenzyl}carbamoylmethoxy)-2,3,4,5-tetrahydro-1,2,5-benzothiadiazepine], the “patients who met criteria for serum bile acid response at the last assessment” value (2 with PFIC3 and 1 with PFIC6, of 6 patients) was “Three”, the “reductions in pruritus score from baseline to last assessment” value [1] was “all but 1 patient (PFIC3) had reductions in pruritus score” and the “reductions in serum bile acids from baseline to last assessment” value [1] was “all patients with PFIC3 or PFIC6 had reductions in serum bile acids”. The “Common TEAEs by preferred term: ALT increased” value (“Common TEAEs … ALT increased” for short) (Patient 1 (PFIC3)) was 0, the “Common TEAEs by preferred term: INR increased” value (“Common TEAEs … INR increased” for short) (Patient 1 (PFIC3)) was 0 and the “Common TEAEs by preferred term: Total bilirubin increased” value (Patient 1 (PFIC3)) was 0. For the same molecule, the “Common TEAEs by preferred term: Vitamin D deficiency” value (“Common TEAEs … Vitamin D deficiency” for short) (Patient 1 (PFIC3)) was 0, the “Mild TEAEs” value (Patient 1 (PFIC3)) was 0 and the “Moderate TEAEs” value (Patient 1 (PFIC3)) was 0. For the same molecule, the “Serious TEAEs” value (Patient 1 (PFIC3)) was 0, the “Severe TEAEs” value (Patient 1 (PFIC3)) was 0 and the TEAEs (Patient 1 (PFIC3)) was 0. For the same molecule, the “TEAEs leading to discontinuation” value (Patient 1 (PFIC3)) was 0, the “Common TEAEs … ALT increased” value (Patient 2 (PFIC3)) was 0 and the “Common TEAEs … INR increased” value (Patient 2 (PFIC3)) was 1. The “Common TEAEs by preferred term: Total bilirubin increased” value (Patient 2 (PFIC3)) was 1, the “Common TEAEs … Vitamin D deficiency” value (Patient 2 (PFIC3)) was 0 and the “Mild TEAEs” value (Patient 2 (PFIC3)) was 1. For the same molecule, the “Moderate TEAEs” value (Patient 2 (PFIC3)) was 2, the “Serious TEAEs” value (Patient 2 (PFIC3)) was 0 and the “Severe TEAEs” value (Patient 2 (PFIC3)) was 0. For the same molecule, the TEAEs (Patient 2 (PFIC3)) was 3, the “TEAEs leading to discontinuation” value (Patient 2 (PFIC3)) was 0 and the “Common TEAEs … ALT increased” value (Patient 3 (PFIC3)) was 1. For the same molecule, the “Common TEAEs … INR increased” value (Patient 3 (PFIC3)) was 1, the “Common TEAEs by preferred term: Total bilirubin increased” value (Patient 3 (PFIC3)) was 2 and the “Common TEAEs … Vitamin D deficiency” value (Patient 3 (PFIC3)) was 0. For the same molecule, the “Mild TEAEs” value (Patient 3 (PFIC3)) was 0, the “Moderate TEAEs” value (Patient 3 (PFIC3)) was 4 and the “Serious TEAEs” value (Patient 3 (PFIC3)) was 0. The “Severe TEAEs” value (Patient 3 (PFIC3)) was 1, the TEAEs (Patient 3 (PFIC3)) was 5 and the “TEAEs leading to discontinuation” value (Patient 3 (PFIC3)) was 0. For the same molecule, the “Common TEAEs … ALT increased” value (Patient 4 (PFIC3)) was 1, the “Common TEAEs … INR increased” value (Patient 4 (PFIC3)) was 0 and the “Common TEAEs by preferred term: Total bilirubin increased” value (Patient 4 (PFIC3)) was 0. The “Common TEAEs … Vitamin D deficiency” value (Patient 4 (PFIC3)) was 1, the “Mild TEAEs” value (Patient 4 (PFIC3)) was 2 and the “Moderate TEAEs” value (Patient 4 (PFIC3)) was 0. The “Serious TEAEs” value (Patient 4 (PFIC3)) was 0, the “Severe TEAEs” value (Patient 4 (PFIC3)) was 3 and the TEAEs (Patient 4 (PFIC3)) was 5. The “TEAEs leading to discontinuation” value (Patient 4 (PFIC3)) was 0, the “Common TEAEs … ALT increased” value (Patient 5 (PFIC3)) was 0 and the “Common TEAEs … INR increased” value (Patient 5 (PFIC3)) was 0. For the same molecule, the “Common TEAEs by preferred term: Total bilirubin increased” value (Patient 5 (PFIC3)) was 0, the “Common TEAEs … Vitamin D deficiency” value (Patient 5 (PFIC3)) was 2 and the “Mild TEAEs” value (Patient 5 (PFIC3)) was 3. For the same molecule, the “Moderate TEAEs” value (Patient 5 (PFIC3)) was 0, the “Serious TEAEs” value (Patient 5 (PFIC3)) was 0 and the “Severe TEAEs” value (Patient 5 (PFIC3)) was 0. For the same molecule, the TEAEs (Patient 5 (PFIC3)) was 3, the “TEAEs leading to discontinuation” value (Patient 5 (PFIC3)) was 0 and the “Common TEAEs … ALT increased” value (Patient 6 (PFIC6)) was 0. For the same molecule, the “Common TEAEs … INR increased” value (Patient 6 (PFIC6)) was 0, the “Common TEAEs by preferred term: Total bilirubin increased” value (Patient 6 (PFIC6)) was 0 and the “Common TEAEs … Vitamin D deficiency” value (Patient 6 (PFIC6)) was 0. For the same molecule, the “Mild TEAEs” value (Patient 6 (PFIC6)) was 1, the “Moderate TEAEs” value (Patient 6 (PFIC6)) was 0 and the “Serious TEAEs” value (Patient 6 (PFIC6)) was 0. For the same molecule, the “Severe TEAEs” value (Patient 6 (PFIC6)) was 0, the TEAEs (Patient 6 (PFIC6)) was 1 and the “TEAEs leading to discontinuation” value (Patient 6 (PFIC6)) was 0. For the same molecule, the “% of days needing help falling asleep, change from baseline to weeks 34-36” value [2] was −21^a %, the “% of days needing soothing, change from baseline to weeks 34-36” value [2] was −36^a % and the “% of days sleeping with caregiver, change from baseline to weeks 34-36” value [2] was 0^a %. The “% of days with bleeding associated with scratching, change from baseline to weeks 34-36” value [2] was 0^a %, the “Height Z score, change from baseline to week 36” value [2] was 0.1 and the “Pruritus score, change from baseline to weeks 34-36” value [2] was −1.8^a. For the same molecule, the “Serum ALT, change from baseline to week 36” value [2] was 89 U/L, the “Serum bile acids, change from baseline to week 36” value [2] was -78 µmol/L and the “Total bilirubin, change from baseline to week 36” value [2] was -83 µmol/L. For the same molecule, the “Weight Z score, change from baseline to week 36” value [2] was 0.5, the “% of days needing help falling asleep, mean (SE) change from baseline to weeks 34-36” value [3] was −29 (24)^a % and the “% of days needing soothing, mean (SE) change from baseline to weeks 34-36” value [3] was −28 (21)^a %. The “% of days sleeping with caregiver, mean (SE) change from baseline to weeks 34-36” value [3] was −27 (22)^a %, the “% of days with bleeding associated with scratching, mean (SE) change from baseline to weeks 34-36” value [3] was 6 (6)^a % and the “Height Z score, mean (SE) change from baseline to week 36” value [3] was 0.2 (0.2). For the same molecule, the “Pruritus score, mean (SE) change from baseline to weeks 34-36” value [3] was −1.6 (0.4)^a, the “Serum ALT, mean (SE) change from baseline to week 36” value [3] was 67 (21) U/L and the “Serum bile acids, mean (SE) change from baseline to week 36” value [3] was −91 (37) μmol/L. The “Total bilirubin, mean (SE) change from baseline to week 36” value [3] was 18 (13) μmol/L, the “Weight Z score, mean (SE) change from baseline to week 36” value [3] was 0.1 (0.4) and the “patients who experienced any TEAE” value (patients with PFIC3 or PFIC6) was 5 of 6. For the same molecule, the “serious TEAEs, TEAEs leading to discontinuation, or deaths” value (patients with PFIC3 or PFIC6) was “no serious TEAEs, TEAEs leading to discontinuation, or deaths”, the tolerability (patients with PFIC3 or PFIC6, up to the data cutoff in PEDFIC 2) was “generally well tolerated” and the “positive pruritus assessments (PPAs)” value (weeks 0-22, 1 additional patient with PFIC3) was 99%. The “positive pruritus assessments (PPAs)” value (weeks 0-36, 5 patients with available data (4 with PFIC3, 1 with PFIC6)) was no less than 85%.
